For one assay, the target named is SOS1 (Homo sapiens (Human), UniProt Q07889). The assay can be described thus: Ras-SOS interaction assay (HTRF). Format: biochemical.
For assay [1], the system named is MIA PaCa-2 cells (K-Ras G12C). Briefly: Ras-SOS cellular growth inhibition assay (CellTiter-Glo, 3D). It is filed as cell-based. Summed up:
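MIA PaCa-2 cells grown in ultra-low-attachment plates (3D) in DMEM/Ham's F12 with 10% FCS and 2.5% horse serum, treated the day after seeding with a 9-point 3-fold compound series for about 5 days. Viability by CellTiter-Glo luminescence; IC50 from four-parameter fit.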
In general terms: ATP-based viability assays read luminescence as a measure of living cells.

Assay [2] concerns NCI-H1975 cells (EGFR T790M L858R). Briefly: EGFR-SOS cellular inhibition assay (CellTiter-Glo, 3D). It is filed as cell-based.
Setting [3] is: K-RasG13D utilized, read-out: IC50 inhibition of SOS.
Setting [4] is: K-RasG13D, read-out: IC50 value against SOS1.
Setting [5] is: Homo sapiens, MIA PaCa-2, 120 h, MIA PaCa-2, 3D proliferation, about 5 days, read-out: Bio-Cell-Prolif-3D (MiaPaca2 IC50).
Setting [6] is: Homo sapiens, MIA PaCa-2, MIA PaCa-2, read-out: IC50 in inhibiting MIA PaCa-2 cell growth.
Setting [7] is: Homo sapiens, 120 h, NCI-H1975, 3D proliferation, about 5 days, read-out: Bio-Cell-Prolif-3D (H1975 IC50).
Setting [8] is: Homo sapiens, NCI-H1975, EGFR T790M L858R, read-out: IC50 in inhibiting growth of NCI-H1975 cell line.

Where two headings read alike, the source gives them in different places.

In general, IC50 refers to the point on the concentration scale where inhibition reaches its midpoint. Regarding `COc1nc2ncnc(N[C@H](C)c3cccc(C(F)(F)CO)c3F)c2cc1N1CCN(C(C)C)CC1` [Compound 204, (R)-2,2-difluoro-2-(2-fluoro-3-(1-((6-(4-isopropylpiperazin-1-yl)-7-methoxypyrido[2,3-d]pyrimidin-4-yl)amino)ethyl)phenyl)ethan-1-ol], the IC50 at SOS1 (setting [3]) is less than 100 nM; on SOS1 (setting [4]), less than 50 nM; in assay [1] (setting [5]), no more than 1000 nM; in assay [1] (setting [6]), less than 500 nM; in assay [2] (setting [7]), no more than 1000 nM; in assay [2] (setting [8]), less than 500 nM.

Consider “4-(4-((1-(3-(difluoro(tetrahydrofuran-3-yl)methyl)-2-fluorophenyl)ethyl)amino)-7-methoxy-2-methylpyrido[2,3-d]pyrimidin-6-yl)tetrahydro-2H-thiopyran 1,1-dioxide [Compound 148]”, for which the IC50 at SOS1 (setting [3]) is less than 100 nM; on SOS1 (setting [4]), less than 50 nM; in assay [1] (MIA PaCa-2, 3D proliferation, about 5 days, read-out: Bio-Cell-Prolif-3D (MiaPaca2 IC50)) it was no more than 1000 nM; in assay [1] (MIA PaCa-2, read-out: IC50 in inhibiting MIA PaCa-2 cell growth) it was less than 500 nM; in assay [2] (NCI-H1975, 3D proliferation, about 5 days, read-out: Bio-Cell-Prolif-3D (H1975 IC50)) it was no more than 1000 nM; in assay [2] (NCI-H1975, EGFR T790M L858R, read-out: IC50 in inhibiting growth of NCI-H1975 cell line), less than 500 nM.

Consider `Cc1c([C@@H](C)Nc2ncnc3nc(Cl)c(C4CCN(C(C)C)CC4)cc23)cccc1C(F)(F)F` [Compound 385, (R)-7-chloro-6-(1-isopropylpiperidin-4-yl)-N-(1-(2-methyl-3-(trifluoromethyl)phenyl)ethyl)pyrido [2,3-d]pyrimidin-4-amine], for which the IC50 at SOS1 (setting [3]) is less than 100 nM; at SOS1 (setting [4]) it was less than 50 nM; in assay [1] (setting [5]), no more than 1000 nM; in assay [1] (setting [6]), less than 500 nM; in assay [2] (setting [7]), no more than 1000 nM; in assay [2] (setting [8]) it was less than 500 nM.

With `COc1nc2nc(C)nc(N[C@H](C)c3cccc(C(F)(F)F)c3C)c2cc1C1(C#N)CC1` [Compound 213, (R)-1-(7-methoxy-2-methyl-4-((1-(2-methyl-3-(trifluoromethyl)phenyl)ethyl)amino)pyrido[2,3-d]pyrimidin-6-yl)cyclopropane-1-carbonitrile], the values for the IC50 (at SOS1 (setting [3]); in assay [1] (setting [5]); in assay [2] (setting [7])) were less than 100 nM, no more than 1000 nM and no more than 1000 nM, respectively.

With `COc1nc2nc(C)nc(N[C@H](C)c3cccc(C(F)(F)F)c3F)c2cc1C1CCN(C(C)=O)CC1` [Compound 165, (R)-1-(4-(4-((1-(2-fluoro-3-(trifluoromethyl)phenyl)ethyl)amino)-7-methoxy-2-methylpyrido[2,3-d]pyrimidin-6-yl)piperidin-1-yl)ethan-1-one], the IC50 on SOS1 (setting [3]) is less than 100 nM; at SOS1 (setting [4]) it was less than 50 nM; in assay [1] (setting [5]), no more than 1000 nM; in assay [2] (setting [7]), no more than 1000 nM; in assay [2] (setting [8]), less than 500 nM.

On to `COc1nc2ncnc(N[C@H](C)c3cccc(C(F)(F)F)c3C)c2cc1N1CCS(=O)(=O)CC1` [Compound 381, (R)-4-(7-methoxy-4-((1-(2-methyl-3-(trifluoromethyl)phenyl)ethyl)amino)pyrido[2,3-d]pyrimidin-6-yl) thiomorpholine 1,1-dioxide], for which the IC50 on SOS1 (setting [3]) was less than 100 nM; at SOS1 (setting [4]), less than 50 nM; in assay [1] (setting [5]), no more than 1000 nM; in assay [1] (setting [6]), less than 500 nM; in assay [2] (setting [7]), no more than 1000 nM; in assay [2] (setting [8]) it was less than 500 nM.

With `Cc1nc(N[C@H](C)c2cccc(C(F)(F)C3CCN(C(C)C)CC3)c2)c2cc(N3CCN(C(C)C)CC3)c(Cl)nc2n1` [Compound 293, (R)-7-chloro-N-(1-(3-(difluoro(1-isopropylpiperidin-4-yl)methyl)phenyl)ethyl)-6-(4-isopropylpiperazin-1-yl)-2-methylpyrido[2,3-d] pyrimidin-4-amine], the IC50 on SOS1 (setting [3]) is less than 100 nM; at SOS1 (setting [4]) it was less than 50 nM; in assay [1] (setting [5]), no more than 1000 nM; in assay [1] (setting [6]), less than 500 nM; in assay [2] (setting [7]), no more than 1000 nM; in assay [2] (setting [8]), less than 500 nM.

Consider `CNc1nc2nc(C)nc(N[C@H](C)c3cccc(C(F)F)c3F)c2cc1S(=O)(=O)C1CCN(C)CC1` [Compound 139, (R)-N4-(1-(3-(difluoromethyl)-2-fluorophenyl)ethyl)-N7,2-dimethyl-6-((1-methylpiperidin-4-yl)sulfonyl)pyrido[2,3-d]pyrimidine-4,7-diamine], for which the IC50 on SOS1 (setting [3]) was less than 100 nM; at SOS1 (setting [4]), less than 50 nM; in assay [1] (setting [5]), no more than 1000 nM; in assay [1] (setting [6]), less than 500 nM; in assay [2] (setting [7]), no more than 1000 nM; in assay [2] (setting [8]) it was less than 500 nM.

Regarding `Cc1nc(N[C@H](C)c2cccc(C(F)F)c2F)c2cc(N3CCN(C)CC3)c(OCC3COC3)nc2n1` [Compound 397, (R)-N-(1-(3-(difluoromethyl)-2-fluorophenyl)ethyl)-2-methyl-6-(4-methylpiperazin-1-yl)-7-(oxetan-3-ylmethoxy)pyrido[2,3-d]pyrimidin-4-amine], the IC50 is less than 100 nM at SOS1 (setting [3]); less than 50 nM at SOS1 (setting [4]); no more than 1000 nM in assay [1] (setting [5]); less than 500 nM in assay [1] (setting [6]); no more than 1000 nM in assay [2] (setting [7]); less than 500 nM in assay [2] (setting [8]).

Regarding `Cc1nc(N[C@H](C)c2cccc(C(F)F)c2F)c2cc(C3CCN(C(C)C)CC3)c(OC3COC3)nc2n1` [Compound 335, (R)-N-(1-(3-(difluoromethyl)-2-fluorophenyl)ethyl)-6-(1-isopropylpiperidin-4-yl)-2-methyl-7-(oxetan-3-yloxy)pyrido [2,3-d]pyrimidin-4-amine], the IC50 is less than 100 nM on SOS1 (setting [3]), no more than 1000 nM in assay [1] (setting [5]) and no more than 1000 nM in assay [2] (setting [7]).

As for `Cc1nc(N[C@H](C)c2cccc(C(F)F)c2F)c2cc(C3(C#N)CC3)c(OC[C@H]3CCCN3C)nc2n1` [Compound 235, 1-(4-(((R)-1-(3-(difluoromethyl)-2-fluorophenyl)ethyl)amino)-2-methyl-7-(((R)-1-methylpyrrolidin-2-yl)methoxy)pyrido [2,3-d]pyrimidin-6-yl)cyclopropane-1-carbonitrile], the IC50 on SOS1 (setting [3]) was less than 100 nM; on SOS1 (setting [4]) it was less than 50 nM; in assay [1] (setting [5]), no more than 1000 nM; in assay [2] (setting [7]) it was no more than 1000 nM; in assay [2] (setting [8]) it was less than 500 nM.

As for `COc1nc2nc(C)nc(N[C@H](C)c3cccc(C(F)F)c3F)c2cc1[C@@H]1CCCN(C)C1` [Compound 134, N-((R)-1-(3-(difluoromethyl)-2-fluorophenyl)ethyl)-7-methoxy-2-methyl-6-((S)-1-methylpiperidin-3-yl)pyrido[2,3-d]pyrimidin-4-amine], the IC50 at SOS1 (setting [3]) was less than 100 nM; on SOS1 (setting [4]), less than 50 nM; in assay [1] (setting [5]), no more than 1000 nM; in assay [1] (setting [6]), less than 500 nM; in assay [2] (setting [7]) it was no more than 1000 nM; in assay [2] (setting [8]), less than 500 nM.

Regarding `Cc1nc(N[C@H](C)c2cccc(C(F)(F)[C@H](C)O)c2F)c2cc(C3(C#N)CC3)c(Cl)nc2n1` [Compound 258, 1-(7-chloro-4-(((R)-1-(3-((S)-1,1-difluoro-2-hydroxypropyl)-2-fluorophenyl)ethyl)amino)-2-methylpyrido[2,3-d]pyrimidin-6-yl)cyclopropane-1-carbonitrile], the IC50 was less than 100 nM on SOS1 (setting [3]); less than 50 nM on SOS1 (setting [4]); no more than 1000 nM in assay [1] (setting [5]); less than 500 nM in assay [1] (setting [6]); no more than 1000 nM in assay [2] (setting [7]); less than 500 nM in assay [2] (setting [8]).

For the compound `COc1nc2nc(C)nc(N[C@H](C)c3cccc(C(F)F)c3F)c2cc1C1(C#N)CC1` [Compound 101, 1-(4-((R)-1-(2-fluoro-3-(difluoromethyl)phenyl)ethylamino)-7-methoxy-2-methylpyrido[2,3-d]pyrimidin-6-yl)cyclopropanecarbonitrile], the IC50 is less than 100 nM on SOS1 (setting [3]), no more than 1000 nM in assay [1] (setting [5]) and no more than 1000 nM in assay [2] (setting [7]).

For the compound `COc1nc2ncnc(N[C@H](C)c3cccc(C(F)F)c3F)c2cc1C1(C#N)CC1` [Compound 184, (R)-1-(4-((1-(3-(difluoromethyl)-2-fluorophenyl)ethyl)amino)-7-methoxypyrido[2,3-d]pyrimidin-6-yl)cyclopropane-1-carbonitrile], the IC50 at SOS1 (setting [3]) is less than 100 nM; in assay [1] (setting [5]), no more than 1000 nM; in assay [2] (setting [7]), no more than 1000 nM; in assay [2] (setting [8]) it was less than 500 nM.

Consider `COc1nc2nc(C)nc(N[C@H](C)c3cccc(C(F)(F)C4CCN(C(C)C)CC4)c3F)c2cc1C1CCN(C(C)C)CC1` [Compound 161, (R)-N-(1-(3-(difluoro(1-isopropylpiperidin-4-yl)methyl)-2-fluorophenyl)ethyl)-6-(1-isopropylpiperidin-4-yl)-7-methoxy-2-methylpyrido[2,3-d]pyrimidin-4-amine], for which the IC50 at SOS1 (setting [3]) was less than 100 nM; on SOS1 (setting [4]), less than 50 nM; in assay [1] (setting [5]), no more than 1000 nM; in assay [1] (setting [6]), less than 500 nM; in assay [2] (setting [7]) it was no more than 1000 nM; in assay [2] (setting [8]) it was less than 500 nM.

For `Cc1nc(N[C@H](C)c2cccc(C(F)(F)C3CCN(C(C)C)CC3)c2F)c2cc(N3CCN(C(C)C)CC3)c(Cl)nc2n1` [Compound 223, (R)-7-chloro-N-(1-(3-(difluoro(1-isopropylpiperidin-4-yl)methyl)-2-fluorophenyl)ethyl)-6-(4-isopropylpiperazin-1-yl)-2-methylpyrido[2,3-d]pyrimidin-4-amine], the IC50 on SOS1 (setting [3]) is less than 100 nM; on SOS1 (setting [4]) it was less than 50 nM; in assay [1] (setting [5]), no more than 1000 nM; in assay [1] (setting [6]) it was less than 500 nM; in assay [2] (setting [7]), no more than 1000 nM; in assay [2] (setting [8]) it was less than 500 nM.

Values taken from patent US11648254B2 (Kumquat Biosciences Inc., priority 2021, dated 2023).
